Reference: patent US20230041271A1, “Mitochondria-Targeted Polypeptide, Preparation Method thereof, and Use thereof” (Shenzhen Campus of Sun Yat-sen University, priority 2021, published 2023)
Square brackets hold non-standard residues; d marks the D form. Peptide text beside a SMILES is read from it. * marks the point of attachment. X2 = COc1cccc2c1C(=O)c1c(O)c3c(c(O)c1C2=O)C[C@@](O)(C(=O)CO)C[C@@H]3O[C@H]1C[C@H](NC(=O)OCCSSCCOC(=O)*)[C@H](O)[C@H](C)O1; 2Nal = N[C@@H](Cc1ccc2ccccc2c1)C(=O)O; d2Nal = N[C@H](Cc1ccc2ccccc2c1)C(=O)O; X1 = O=C1NC2CS[C@@H](CCCCC(=O)*)C2N1

Tests used:
[1] = system: mitochondria of HeLa cells; assay: Mitochondrial co-localization confocal imaging with MitoTracker Deep Red; assay type: cell-based; conditions: for co-localization coefficient with the commercial mitochondrial dye (MitoTracker Deep Red): HeLa cells, confocal imaging, 50 nM MitoTracker Deep Red
Method: The synthesized mitochondria-targeted fluorescent probes were analyzed by confocal imaging to detect the effect of the arginine number on the mitochondrial localization thereof.
Experimental method: Solid powders of mitochondria-targeted fluorescent probes 8-12 synthesized in Example 3 were dissolved in DMSO to prepare 2 mM test mother solutions, and HeLa cells were cultured in a culture medium (DMEM: FBS: penicillin-streptomycin dual antibody=9:1:0.1). The cells were inoculated in an 8-well imaging dish and cultured in a cell incubator containing 5% CO2 at 37° C. until the cell density reached 60%. After the culture medium was removed, the cells were incubated with the target compound for a specified time. The culture medium was then removed, and wash with PBS was conducted three times. Thereafter, 50 nM commercial mitochondrial probe MitoTracker Deep Red (50 nM) was further added to the culture dish for 15 minutes of continuous incubation. After the culture medium was removed, wash with PBS was conducted three times. Imaging on confocal microscope was then carried out. Blue channel tracker 1 was set, with the excitation wavelength being 405 nm and the emission band being 420-490 nm, and this channel was used to receive fluorescence emitted by the mitochondria-targeted peptide. Red channel tracker 2 was set, with the excitation wavelength being 640 nm and the emission band being 655-755 nm, and this channel was used to receive fluorescence emitted by MitoTracker Deep Red, a commercial mitochondrial dye. In addition, in a cell imaging experiment, green channel tracker 3 was set, with the excitation wavelength being 560 nm and the emission band being 580-620 nm, and this channel was used to receive fluorescence emitted by compound 13. Green channel tracker 4 was set, with the excitation wavelength being 488 nm and the emission band being 500-600 nm, and this channel was used to receive fluorescence emitted by compound 14.

Hela cells [2] = assay: Drug release test of prodrug 17 in cells (fluorescence imaging); assay type: cell-based; conditions: for localization in the cells: HeLa cells
Method: Hela cells were cultured in an 8-well imaging dish and then treated with prodrug 17 (1 μM) for a certain time (1 h, 2 h, 3 h and 5 h). After the culture medium was removed, the cells were washed with PBS, a fresh culture medium was used for replacement, and the treated cells were then photographed by a fluorescence microscope. In addition, the cells were directly co-incubated with compound 17 (1 μM) for 1 h and then incubated with exogenous GSH (2 mM) for another 1 h (totally 2 h of incubation with compound 17); the cells were pretreated with the GSH inhibitor BSO (5 mM) for 24 h and then incubated with compound 17 (1 μM) for 3 h; and the cells were pre-incubated with a tumor-targeted biotin ligand at various concentrations (1 mM or 2 mM) for 1 h and then co-incubated with compound 17 for 3 h. After the culture medium was removed, the cells were washed with PBS, a fresh culture medium was used for replacement, and a fluorescence microscope was then used to take an image, which was used as the control.

[3] = Drug release and stability test of prodrug 17 in PBS solution with or without GSH (fluorescence, HPLC, ESI-MS); assay type: physicochemical
Method: Prodrug 17 (5 mM stock solution in DMSO) was diluted with PBS to form a solution at an indicated concentration and then incubated at 37° C. with a glutathione (GSH) solution at a specified concentration (0-12 mM GSH for concentration-dependent study and 10 mM GSH for time-dependent study), and the fluorescence of the treated sample was monitored periodically at specific time points. The change in the fluorescence intensity of the sample reflected the drug release behavior of prodrug 17 under GSH activation. In addition, a chromatogram was detected by high performance liquid chromatography after co-incubation of prodrug 17 (20 μM) with GSH (10 mM) in a PBS solution at 37° C. for 6 h, and a mass spectrum of the reaction solution was detected by ESI-MS.

HeLa tumor cells = assay: Cytotoxicity test (MTT) on tumor cells; assay type: cell-based; conditions: various concentrations, 48 h
Method: (§1) Cells were inoculated in a 96-well plate and cultured overnight in a cell incubator containing 5% CO2 at 37° C. The cells were treated with prodrug 17 at various concentrations and cultured in a cell incubator containing 5% CO2 at 37° C. for 48 h. A commercial MTT assay kit was then used to measure the cell viability. The experiment was repeated three times, and the data were analyzed by GraphPad Prism 6.0 software.

normal CHO cells = assay: Cytotoxicity test (MTT) on normal cells; assay type: cell-based; conditions: various concentrations, 48 h
Method: as §1

Hela cells [4] = assay: Determination of mitochondrial membrane potential MMP (JC-10 dye); assay type: cell-based; conditions: 0-10 μM, 24 hours
Method: Cells were inoculated in a 384-well plate with a black transparent bottom and then cultured overnight in a cell incubator containing 5% CO2 at 37° C., and the cells were treated with prodrug 17 at a specified concentration for 24 hours. An MMP kit (JC-10 dye, MAK-160) was then used for treatment and measurement according to the test method as provided, wherein apoptotic/damaged cells were monitored using λex=490 nm and λem=525 nm, and normal cells were monitored using λex=540 nm and λem=590 nm.

Hela cells [5] = assay: Apoptosis detection (Annexin V-PE, flow cytometry); assay type: cell-based; conditions: various concentrations, 24 h
Method: Cells were inoculated in a 35 mm culture dish. After culture overnight at 37° C., the cells were treated with prodrug 17 at a specified concentration for 24 h. The cells were then collected, rinsed with PBS, resuspended in 500 μL of 1×buffer, and quantitatively measured by a flow cytometer according to a method given by the apoptosis kit Annexin V-PE.

## Ac-Arg-Arg-Arg-Arg-Arg-L-Nal-D-Nal-Gly-Gly-Lys [MTPS]
[1]
  co-localization coefficient with the commercial mitochondrial dye (MitoTracker Deep Red): 0.54

## Ac-Arg-Arg-L-Nal-D-Nal-Gly-Gly-Lys [MTP2]
[1]
  co-localization coefficient with the commercial mitochondrial dye (MitoTracker Deep Red): 0.65

## COc1cccc2c1C(=O)c1c(O)c3c(c(O)c1C2=O)C[C@@](O)(C(=O)CO)C[C@@H]3O[C@H]1C[C@H](N)[C@H](O)[C@H](C)O1 [Dox, doxorubicin, reference compound]
Hela cells [2]; 1 μM, fluorescence imaging
  localization in the cells: mainly located in the nucleus

## Ac-Arg-Arg-Arg-Arg-L-Nal-D-Nal-Gly-Gly-Lys [MTP4]
[1]
  co-localization coefficient with the commercial mitochondrial dye (MitoTracker Deep Red): 0.68

## COc1cccc2c1C(=O)c1c(O)c3c(c(O)c1C2=O)C[C@@](O)(C(=O)CO)C[C@@H]3O[C@H]1C[C@H](NC(=O)OCCSSCCOC(=O)NCCCC[C@H](NC(=O)CNC(=O)CNC(=O)[C@@H](Cc2ccc3ccccc3c2)NC(=O)[C@H](Cc2ccc3ccccc3c2)NC(=O)[C@H](CCCNC(=N)N)NC(=O)[C@H](CCCNC(=N)N)NC(=O)[C@H](CCCNC(=N)N)NC(=O)CCCC[C@@H]2SCC3NC(=O)NC32)C(N)=O)[C@H](O)[C@H](C)O1 (some centres unmarked) [prodrug 17] (X1-RRR[2Nal][d2Nal]GGK(X2)-NH2)
[1]; 1 μM in HeLa cells
  mitochondrial targeting (co-localization imaging): excellent mitochondrial targeting properties
[3]; 37° C., 10 mM GSH, PBS
  time at which fluorescence (drug release) reached the maximum value: about 8 hours
[3]; PBS solution at 37° C. for 7 days, HPLC
  stability in PBS solution: no obvious compound degradation
[3]; prodrug 20 μM, GSH 10 mM, PBS, 37° C., 6 h
  GSH-responsive release detected by HPLC and ESI-MS: released Dox and mitochondria-targeted peptide 16 could be clearly detected
Hela cells [2]; 1 μM, 1-5 h, fluorescence imaging
  uptake by and release in HeLa cells: slowly taken up
Hela cells [2]; BSO 5 mM 24 h, then 1 μM for 3 h
  cell fluorescence after pre-incubation with the GSH inhibitor BSO: almost no fluorescence
Hela cells [2]; 1 μM, fluorescence imaging
  localization in the cells: mainly located in mitochondria
HeLa tumor cells
  anti-tumor activity (cell viability of HeLa cells): strong anti-tumor activity
Normal CHO cells
  toxicity to normal cells (CHO cells): almost no toxicity
Hela cells [4]
  mitochondrial membrane potential change: remarkable reduction in mitochondrial membrane potential
Hela cells [5]
  induction of apoptosis: induce cell death through cell apoptosis

## Ac-Arg-Arg-Arg-L-Nal-D-Nal-Gly-Gly-Lys [MTP3]
[1]
  co-localization coefficient with the commercial mitochondrial dye (MitoTracker Deep Red): 0.84
[1]; after co-incubation with cells for up to 36 h
  co-localization coefficient with the commercial fluorescent probe after long co-incubation: 0.70
